We go through four compounds from PMC10235985 (Proceedings of the National Academy of Sciences of the …, 2023).

For data set [1], the system named is hNK1R-407 mice. The experiment in a line: Capsaicin-evoked mechanical allodynia. The format is in vivo, mouse. The conditions noted are these: 5 µL intrathecal; for duration of inhibition of capsaicin-evoked mechanical allodynia: 100 nM; for effect of higher dose on magnitude or duration of antinociception: 300 nM.
Data set [2] concerns hNK1R-407, hNK1R-311, and wild-type mice. In words: SP-evoked mechanical allodynia. The note with it: AP 100 nM/5 µL coadministered with SP 1 µg/5 µL intrathecal; hNK1R-407, hNK1R-311, wild-type mice. It is filed as in vivo, mouse.
Data set [3] relates to spinal neurons in NK1R-407 mice. More on the design: species or system mouse. The note with it: spinal cord slices.
For data set [4], the target named is T1, NK1R (Homo sapiens, UniProt P25103). In words: cell-based.
T1 sequence (P25103 whole entry): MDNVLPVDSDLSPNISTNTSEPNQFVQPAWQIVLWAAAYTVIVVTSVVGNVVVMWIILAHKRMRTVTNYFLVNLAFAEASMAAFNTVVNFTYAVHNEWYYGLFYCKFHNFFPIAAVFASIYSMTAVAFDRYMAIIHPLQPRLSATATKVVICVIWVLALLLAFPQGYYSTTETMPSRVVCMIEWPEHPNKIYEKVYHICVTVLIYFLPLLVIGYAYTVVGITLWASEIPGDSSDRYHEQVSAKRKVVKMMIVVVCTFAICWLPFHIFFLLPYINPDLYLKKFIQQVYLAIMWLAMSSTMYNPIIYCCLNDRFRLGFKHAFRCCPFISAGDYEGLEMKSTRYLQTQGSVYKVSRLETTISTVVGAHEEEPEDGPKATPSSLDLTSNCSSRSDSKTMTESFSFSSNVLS
Data set [5] in a line: pKa measurement by potentiometric titration. The format is physicochemical. The note with it: 67% methanol aqueous solution.
Data set [6] addresses T2, Nluc-NK1R (human NK1R) (Homo sapiens, UniProt P25103). The experiment in a line: biochemical. It is filed as binding.
Data set [7] concerns the target T1, NK1R. The experiment in a line: ebBRET of SP-evoked mGαsq recruitment to early endosomes. The format is cell-based. The note with it: antagonist 10 µM added after 5 min SP; one phase decay.
Data set [8] addresses human NK1R-NP (Homo sapiens, UniProt P25103). The experiment in a line: NanoBiT-BRET. It is filed as cell-based. The note with it: NT 30 min, n = 5. On the technique in general: BRET reads energy transfer from a luciferase to a nearby fluorophore.
The target of data set [9] is T1, NK1R. The experiment in a line: Nuclear ERK activity, Nuc-EKAR FRET biosensor, HEK293T cells with human NK1R. The format is cell-based.
A short description of data set [10]: logD experiments, distribution between octanol and aqueous buffer. It is filed as physicochemical. The note with it: octanol/phosphate buffer, pH 7.
For data set [11], the target named is T2, Nluc-NK1R (human NK1R). The experiment in a line: NanoBRET saturation binding of TAMRA-NT analogs, membranes from HEK293T cells. The conditions noted are these: read-out: Kd for Nluc-NK1R; pH 7.4, saturation binding.

T2 sequence (P25103 whole entry): as above
Chain of human NK1R-NP (P25103 whole entry): as above

For `C[C@@H](O[C@H]1OCCN(Cc2n[nH]c(=O)[nH]2)[C@H]1c1ccc(F)cc1)c1cc(C(F)(F)F)cc(C(F)(F)F)c1` [AP, aprepitant], in [1], the “duration of inhibition of capsaicin-evoked mechanical allodynia” value was determined as 2 h and the “effect of higher dose on magnitude or duration of antinociception” value is recorded as “did not further increase the magnitude or duration of the antinociception”. Moreover, in data set [2], the “effect on SP-evoked mechanical allodynia” value is on record as “abolished”. Also, in data set [3], the “effect on SP-induced excitation of spinal neurons” value is listed as “prevented SP-induced excitation”.

For the compound `Cc1ccccc1-c1cc(N2CCN(C)CC2)ncc1N(C)C(=O)C(C)(C)c1cc(C(F)(F)F)cc(C(F)(F)F)c1` [NT, netupitant], the IC50 (usually the concentration needed to halve the response being measured) in data set [4] is 178 nM; in data set [8] (pIC50, inhibition of mGαsq recruitment to NK1R-NP at the plasma membrane (CAAX), CAAX, plasma membrane), 6.46 nM; in [8] (pIC50, inhibition of mGαsq recruitment to NK1R-NP in early endosomes (FYVE), FYVE, early endosomes), 20 nM; in data set [9] it was 257 nM. Moreover, the pKa (commonly the negative logarithm of the acid dissociation constant) in [5] turned out to be 6.81. Moreover, the Ki (in general, the equilibrium dissociation constant of an inhibitor or competing ligand from its target) in data set [6] (Binding affinity BRET (Nluc-NK1R) pKi at pH 6.0) is 0.851 nM; in [6] (Ki (pH 7.4), pH 7.4, tracer PS69), 0.91 nM. Moreover, the “duration of inhibition of capsaicin-evoked mechanical allodynia” value in data set [1] is 4 h. For the same compound, the “effect of higher dose on magnitude or duration of antinociception” value in [1] is “did not further increase the magnitude or duration of the antinociception”. In addition, the “Kinetics of inhibition Endosomal miniGαsq (ebBRET) k for 10 µM” value in data set [7] is on record as 0.14 ± 0.02 (9) min^−1. In data set [10], the logD – broadly, lipophilicity at a set pH, counting ionised and neutral species – amounted to 4.97.

As to “PS68: fluorescent tetramethylrhodamine (TAMRA) derivative of NT, also referred to as TAMRA-NT”, the Kd (as a rule, the equilibrium constant for the complex coming apart) in [11] was determined as 1.9 ± 0.39 nM.

For the compound “PS69: fluorescent TAMRA derivative of NT used as tracer in competition binding”, the Kd in data set [11] was 0.81 ± 0.065 nM.
